Laboratory results as given in patent US10195156B2, “Compounds and compositions for intracellular delivery of agents” (ModernaTX, Inc., priority 2015, dated 2019).

Legend:
[1] = Particle size and polydispersity index of nanoparticle compositions (Zetasizer Nano ZS); format: physicochemical
Method in brief: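 Nanoparticle compositions are diluted in 1×PBS, then size and polydispersity index are read on a Zetasizer Nano ZS instrument.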

[2] = Encapsulation efficiency of RNA (QUANT-IT RIBOGREEN RNA assay); format: physicochemical
Method in brief: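 Nanoparticle samples diluted to ~5 μg/mL RNA in TE buffer (pH 7.5), incubated with or without 2% Triton X-100 solution at 37 °C for 15 min, then RiboGreen added. Fluorescence read at ~480/520 nm, blank-subtracted; free RNA % = intact over Triton-disrupted signal.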

hEPO mRNA expression [3] = assay: Expression of hEPO in CD-1 mice; format: in vivo; conditions: Table 7e; hEPO expression, CD-1 mice, 0.5 mpk
Excerpt: FIG. 12 is a set of graphs illustrating hEPO expression levels in CD-1 mice dosed with compounds of the disclosure, compared to MC3. PBS is used as control. […] In graphs A-C numbers 1-14 refer to compositions containing the following: 1: Compound 73, 2: Compound 80, 3: Compound 70; 4: Compound 81; 5: Compound 69; 6: Compound 82; 7: Compound 83; 8: Compound 62; 9: Compound 84; 10: Compound 85; 11: Compound 86; 12: Compound 87; 13: MC3; 14: PBS.
FIG. 13 is a graph showing hEPO levels (pg/mL) in CD-1 mice up to ˜25 h after administration of a nanoparticle composition containing compounds of the disclosure, compared to a composition containing MC3. Numbers 1-13 refer to compositions containing the following: 1: Compound 73, 2: Compound 80, 3: Compound 70; 4: Compound 81; 5: Compound 69; 6: Compound 82; 7: Compound 83; 8: Compound 62; 9: Compound 84; 10: Compound 85; 11: Compound 86; 12: Compound 87; 13: MC3. […]

[4] = pKa of nanoparticle compositions; format: physicochemical; conditions: Table 1; rows without footnote mark
[5] = test system: luciferase (Luc) mRNA expression; assay: Expression of Luc induced by sample formulations, whole-body bioluminescence after intravenous administration; format: in vivo; conditions: Table 2; mice, i.v., 0.5 mg/kg, 6 hours
Method in brief: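 Mice (n=6) dosed intravenously with Luc mRNA nanoparticle formulations at 0.5 mg/kg. Whole-body bioluminescence measured at 3, 6 and 24 h. Standard MC3 formulation and PBS control run alongside.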

[6] = test system: modified luciferase expression; assay: Expression of Luc in different organs (liver, lung, spleen, femur) 6 hours after intravenous administration; format: in vivo; conditions: Table 3, mice, i.v., 0.5 mpk
Experimental: The efficacy of the nanoparticle compositions presented in Tables 1, 1a, 17-1, 19-1, 20-1 and 21-1 was further evaluated by measuring the expression of modified luciferase in the liver, lung, spleen, and femur upon administration of a given composition. Formulations were administered intravenously to mice (n=3) at a dosage of 0.5 mpk and bioluminescence measured after 6 hours. The standard MC3 formulation and a PBS control were also tested.

hEPO mRNA expression [7] = assay: Expression of hEPO in rats after intravenous administration; format: in vivo; conditions: hEPO expression in S.D. rats; for AUC/MC3 0.1 mpk / AUC/MC3 1 mpk: relative to MC3
Experimental: PBS (phosphate buffered saline) is used as control.
Formulations were prepared according to Table 5 and included mRNA encoding hEPO.
[…] After the 48 hour time point, livers and spleens were harvested and frozen.

[8] = Lipid levels in liver and spleen 48 hours after administration; format: in vivo, rats; conditions: rat liver, 48 h
Experimental: Formulations were administered intravenously to rats (n=3 or 6) at a dosage of 0.2 mg/kg or 0.5 mg/kg (mpk) and hEPO levels measured at 3, 6, and 24 hour time points. After the 48 hour time point, livers and spleens were harvested and frozen.
The amount of lipid in the liver and spleen 48 hours after administration of a nanoparticle composition was also measured. […] In contrast, approximately 60% of doses including MC3 or Compound 22 remained in the liver after 48 hours. Less than 3% of the dose remained in the spleen for each composition tested.

[9] = Lipid clearance: % dose remaining in mouse liver 6 h and 24 h after administration of nanoparticle compositions; format: in vivo, CD-1 mice
Excerpt: In contrast, hEPO expression in rats induced by administration of a nanoparticle composition including a compound according to one of formulae (I), (Ia1)-(Ia6), (Ib), (II), (IIa), (III), and (IIIa) was substantially […] than that measured for MC3. […] Table 7c and 7d show additional protein expressions and clearance data from compositions with various compounds disclosed herein as compared to with MC3.

[10] = Table 1, rows without footnote mark
[11] = Table 1, rows without footnote mark (lipid:DOPE:cholesterol:PEG-DMG 40:20:38.5:1.5, Luc mRNA; MC3 standard formulation)

SMILES	PDI ([1]; Table 1b)	Size (nm) ([1]; Table 1b)	EE (%) ([2]; Table 1b)	AUC (p/s*h) CD-1 mice 0.5 mpk (hEPO mRNA expression [3]) [p/s*h]	PDI [1, 10]	Size (nm) [1, 11] [nm]	EE (%) [2, 10] [%]	pKa [4]	Total Flux 6 hours [5]	Total Flux Liver [6]	Total Flux Spleen [6]	AUC (0.1 mpk) (hEPO mRNA expression [7])	AUC/MC3 0.1 mpk (hEPO mRNA expression [7])	AUC (1 mpk) (hEPO mRNA expression [7])	AUC/MC3 1 mpk (hEPO mRNA expression [7])	% dose remainng Rat liver (48 h) [8] [%]	% Dose remaining 6 h CD-1 mice [9] [%]	% Dose remaining 24 h CD-1 mice [9] [%]	% dose remaining Mouse liver (24 h) [9] [%]
CCCCCCCCCN(CCCOC(=O)CCCCC)CCC(=O)N1CCN(C(=O)CCN(CCCCCCCCC)CCN(CCCCCCCCC)CCCCCCCCC)CC1 [Compound 86, 3-((3-(4-(3-((2-(Dinonylamino)ethyl)(nonyl)amino)propanoyl)piperazin-1-yl)-3-oxopropyl)(nonyl)amino)propyl Hexanoate]	0.14	53.6	97.42	1.75E+7															
CCCCCCCCCN(CCCCCCCCC)CCN(CCCCCCCCC)CC(=O)N1CCN(C(=O)CN(CCCCCCCCC)CCCC(=O)OCCCCC)CC1 [Compound 45, Pentyl 4-((2-(4-(N-(2-(dinonylamino)ethyl)-N-nonylglycyl)piperazin-1-yl)-2-oxoethyl)(nonyl)amino)butanoate]					0.200	100.2	94.9	6.77	7.86E+10	7.87E+09	1.70E+08	1.45E+06	0.90	2.00E+08	1.7	8.57	33	24	23.7
CCCCCCCCCN(CCCOC(=O)CCCCC)CCCC1CCN(C(=O)CCN(CCCCCCCCC)CCN(CCCCCCCCC)CCCCCCCCC)CC1 [Compound 87, 3-((3-(1-(3-((2-(Dinonylamino)ethyl)(nonyl)amino)propanoyl)piperidin-4-yl)propyl)(nonyl)amino)propyl Hexanoate]	0.21	80.9	98.67	2.86E+7															
CCCCCCCCCN(CCCCCCCCC)CCN(CCCCCCCCC)CC(=O)N1CCC(CN(CCCCCCCCC)CCCC(=O)OCCCCC)C1 (centres unmarked) [Compound 82, Pentyl 4-(((1-(N-(2-(dinonylamino)ethyl)-N-nonylglycyl)pyrrolidin-3-yl)methyl)(nonyl)amino)butanoate]	0.24	76.1	99.23	1.29E+8															
CCCCCCCCCCCCCCN(CCCCCCCCCCCCCC)CC(=O)N1CCN(C(=O)CN(CCCCCCCCC)CCN(CCCCCCCCC)CCCCCCCCC)CC1 [Compound 51, 2-((2-(Dinonylamino)ethyl)(nonyl)amino)-1-(4-(ditetradecylglycyl)piperazin-1-yl)ethan-1-one]					0.190	76.6	98.4	6.44	6.70E+10	3.55E+09	2.24E+07						54	41	
CCCCCCCCCN(CCCC(=O)OCCCCC)CCC1CCN(C(=O)CN(CCCCCCCCC)CCN(CCCCCCCCC)CCCCCCCCC)C1 (centres unmarked) [Compound 81, Pentyl 4-((2-(1-(N-(2-(dinonylamino)ethyl)-N-nonylglycyl)pyrrolidin-3-yl)ethyl)(nonyl)amino)butanoate]	0.17	65.3	99.27	1.08E+8															
CCCCCCCCCN(CCCCCCCC(=O)OC)CCN(CCCCCCCC(=O)OC)CC(=O)N1CCN(C(=O)CN(CCCCCCCCC)CCCCCCCCC)CC1 [Compound 48, Methyl 8-((2-(4-(dinonylglycyl)piperazin-1-yl)-2-oxoethyl)(2-((8-methoxy-8-oxooctyl)(nonyl)amino)ethyl)amino)octanoate]					0.099	111.4	79.3	6.99	1.05E+08	1.04E+07	1.50E+07						<1	<1	
CCCCCCCCCN(CCCC(=O)OCCCCC)CCC(=O)N1CCN(C(=O)CCN(CCCCCCCCC)CCN(CCCCCCCCC)CCCCCCCCC)CC1 [Compound 62, Pentyl 4-((3-(4-(3-((2-(dinonylamino)ethyl)(nonyl)amino)propanoyl)piperazin-1-yl)-3-oxopropyl)(nonyl)amino)butanoate]	0.18	61.7	97.73	3.46E+7															
CCCCCCCCCCCCN(CCCCCCCCCCCC)CCN(CCCCCCCCCCCC)CC(=O)N1CC2CC1CN2C(=O)CN(CCCCCCCCC)CCCCCCCCC (centres unmarked) [Compound 43, 2-((2-(Didodecylamino)ethyl)(dodecyl)amino)-1-(5-(dinonylglycyl)-2,5-diazabicyclo[2.2.1]heptan-2-yl)ethan-1-one]					0.220	99.0	99.1	6.72	4.54E+09	2.60E+08	4.52E+07						69	64	
CCCCCCCCCN(CCCCCCCCC)CCC(=O)N1CCN(C(=O)CCN(CCCCCCCCC)CCN(CCCCCCCCC)CCCCCCCCC)CC1 [Compound 52, 3-(Dinonylamino)-1-(4-(3-((2-(dinonylamino)ethyl)(nonyl)amino)propanoyl)piperazin-1-yl)propan-1-one]					0.100	94.4	97.5	6.77	9.85E+10	1.18E+10	8.74E+08						46	40	
CCCCCCCCCN(CCCCCCCCC)CCN(CCCCCCCCC)CC(=O)N1CCN(C(=O)CN(CCCCCCCCC)CCCCCCCC(=O)OC)CC1 [Compound 44, Methyl 8-((2-(4-(N-(2-(dinonylamino)ethyl)-N-nonylglycyl)piperazin-1-yl)-2-oxoethyl)(nonyl)amino)octanoate]					0.190	94.9	89.5	6.82	1.07E+10	1.11E+09	1.19E+08						<1	<1	
CCCCCCCCCN(CCCCCCCCC)CCC1CCN(C(=O)CN(CCCCCCCCC)CCN(CCCCCCCCC)CCCCCCCCC)CC1 [Compound 49, 2-((2-(Dinonylamino)ethyl)(nonyl)amino)-1-(4-(2-(dinonylamino)ethyl)piperidin-1-yl)ethan-1-one]					0.200	95.8	98.8	6.4	5.67E+10	1.21E+10	6.65E+07	5.98E+06	3.7	1.44E+08	1.2	38.45	49	40	40.3
